In publication PMC8845285, “Serotoninergic receptor ligands improve Tamoxifen effectiveness on breast cancer cells” (BMC Cancer, 2022):

Legend:
[1] = molecular target: T1, serotonin 5-HT2C receptor (Rattus norvegicus, UniProt P08909); experiment: radioligand binding assay, 5-HT2C, [3H]mesulergine; settings: rat brain cortex; read-out: Ki ± SD, 5-HT2C [3H]Mesulergine
T1 construct: serotonin 5-HT2C receptor, [^3H]mesulergine, rat brain cortex; from tissue; host or cells: rat brain cortex
T1 sequence (P08909 33-460): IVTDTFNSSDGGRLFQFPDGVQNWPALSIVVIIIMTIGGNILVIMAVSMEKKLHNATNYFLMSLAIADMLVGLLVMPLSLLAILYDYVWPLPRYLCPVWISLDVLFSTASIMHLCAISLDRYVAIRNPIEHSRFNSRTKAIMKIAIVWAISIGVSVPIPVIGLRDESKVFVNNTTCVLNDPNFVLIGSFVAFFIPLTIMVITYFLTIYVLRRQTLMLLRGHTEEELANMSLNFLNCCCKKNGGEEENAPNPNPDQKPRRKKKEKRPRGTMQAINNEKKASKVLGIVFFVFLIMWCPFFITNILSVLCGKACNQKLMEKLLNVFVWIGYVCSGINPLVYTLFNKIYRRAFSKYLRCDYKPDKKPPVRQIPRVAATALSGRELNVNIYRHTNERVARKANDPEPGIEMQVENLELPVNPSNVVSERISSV
Procedure: All reactions were monitored by TLC, carried out on Merck 60G F254 plates with fluorescent indicator and the plates were visualized with UV light (254 nm). Each final compound and intermediate was purified by silica gel column chromatography (Macherey-Nagel 60 0,063–0,2 mm/70–230 mesh). […] Unless otherwise stated, all spectra were recorded in CDCl3. Chemical shifts are reported in ppm using Me4Si as internal standard. The following abbreviations are used to describe peak patterns when appropriate: s (singlet), d (doublet), t (triplet), m (multiplet), q (quartet), qt (quintet), dd (double doublet), ddd (double dd), bs (broad singlet). Mass spectra of the final products were performed on LTQ Orbitrap XL™ Fourier transform mass spectrometer (FTMS) equipped with ESI ION MAX™ source (Thermo Fisher, San José, USA). Melting points were determined using a Buchi B-540 hot-stage instrument and are uncorrected. […] All the compounds were dissolved in 5% DMSO. The following specific radioligands and tissue sources were used: (a)serotonin 5-HT1A receptor, [^3H]-8-OH-DPAT, rat brain cortex; (b) serotonin 5-HT2A receptor, [^3H]ketanserin, rat brain cortex; (c)serotonin 5-HT2C receptor, [^3H]mesulergine, rat brain cortex. Non-specific binding was determined as described in the experimental section, and specific binding as the difference between total and non-specific binding. […] The IC50 values obtained were used to calculate apparent inhibition constants (Ki) by the method of Cheng and Prussoff, from the following equation: Ki = IC50/(1 + S/KD) where S represents the concentration of the hot ligand used and KD its receptor dissociation constant (KD values, obtained by Scatchard analysis, were calculated for each labeled ligand). Radioligand binding assays for 5-HT1A were performed following a published procedure. 5-HT2A and 5-HT2C binding assays were performed reported by Herndon et al..

[2] = test system: Tamoxifen-cultured MCF7 cells; experiment: Tamoxifen-cultured MCF7 cell viability, sulforhodamine B assay; format: cell-based, human; settings: E2 100 nM, 72 h; for further reduction of viability elicited by Tamoxifen in presence of SER: Tamoxifen 5 μM, Tamoxifen-cultured MCF7
Procedure: Cells were fixed with 50% trichloroacetic acid for at least 2 h at 4 °C, washed with distilled and de-ionized water, air-dryed and stained 30 min with 0.4% sulforhodamine B in 1% acetic acid. Unbound dye was removed and 10 mM tris-HCl solution (pH 7.5) was added to dissolve the protein-bound dye. Cell survival was assessed by optical density determination at 510 nm using a microplate reader.
To further investigate the effect of SER79 and SER68 on Tamoxifen responsiveness and CTGF expression in MCF7 cells, we obtained - by a continuous treatment of 10 days with 1 μM Tamoxifen – a cellular model less sensitive to the drug (Tamoxifen-cultured MCF7). We observed that 20 μM SER79, 20 μM and 40 μM SER68, while not 5 μM SER79, reduced viability of Tamoxifen-cultured MCF7 cells by about 40% (adjp<0.01; Fig. 8a). […] However, in the presence of 20 μM SER79, 20 μM and 40 μM SER68, Tamoxifen elicited a further 40% reduction of viability, similar to that achieved in Tamoxifen-responsive MCF7 cells (adjp<0.01; Fig. 8b).
Fig. 8 Effect of SER79 and SER68 on Tamoxifen-cultured MCF7 cells. MCF7 cells were cultured in presence of Tamoxifen (1 μM) for 10 days. Estrogen-starved MCF7 and Tamoxifen-cultured MCF7 cells (48 h) were (a-c) treated with SER79 (20 μM, 5 μM) or SER68 (40 μ, 20 μM), (b) treated with Tamoxifen (5 μM) in presence of SER79 (20 μM, 5 μM) or SER68 (40 μM, 20 μM). All treatments were carried out in presence of E2 (100 nM) for 72 h. As positive control, the cells were treated with (a-c) E2 alone or (b) E2 in absence or in presence of SER (as indicated, dotted line). a,b Cell viability was assessed by sulforhodamine B assay (see Methods). The results were reported as percentage of viable cells compared to positive control, considered as maximum viability (100%). c mRNA levels of CTGF were determined by qPCR (see Methods and Table 1). Data were normalized on Ribosomal Protein S23 (Rps23) gene as internal standard and reported as CTGF mRNA levels in Tamoxifen-cultured MCF7 relative to those in MCF7 cells (dotted line). a-c Graphs represent the mean ± SD of at least three independent triplicate experiments. * denotes statistically significant values compared with (a,b) positive control (*adjp<0.05, ** adjp<0.01) or (c) MCF7 cells (*pval<0.05); # denotes statistically significant values compared with (b) cells treated with Tamoxifen in absence of SER or (c) untreated Tamoxifen-cultured MCF7 cells (#pval<0.01, ##pval<0.0001)

CTGF = CTGF mRNA levels in Tamoxifen-cultured MCF7 cells, qPCR; format: cell-based, human; settings: Tamoxifen-cultured MCF7, doses able to restore Tamoxifen responsiveness, 72 h
Procedure: Total RNA was isolated from cells, quantified (NanoDrop spectrophotometer, Life Technologies, Carlsbad, CA, USA) and reverse transcribed according to the manufacturer’s instructions. Semiquantitative PCR and qPCR assays were performed according to manufacturer’s instructions for Bio-Rad T100 thermal cycler and CFX Connect Real Time system (Biorad, Hercules, CA, USA), respectively. Relative gene expression quantification was measured by 2^−ΔΔCt method normalizing for the reference sample using Rps23 (Ribosomal Protein S23) as housekeeping gene.
Fig. 8 Effect of SER79 and SER68 on Tamoxifen-cultured MCF7 cells. MCF7 cells were cultured in presence of Tamoxifen (1 μM) for 10 days. Estrogen-starved MCF7 and Tamoxifen-cultured MCF7 cells (48 h) were (a-c) treated with SER79 (20 μM, 5 μM) or SER68 (40 μ, 20 μM), (b) treated with Tamoxifen (5 μM) in presence of SER79 (20 μM, 5 μM) or SER68 (40 μM, 20 μM). All treatments were carried out in presence of E2 (100 nM) for 72 h. As positive control, the cells were treated with (a-c) E2 alone or (b) E2 in absence or in presence of SER (as indicated, dotted line). a,b Cell viability was assessed by sulforhodamine B assay (see Methods). The results were reported as percentage of viable cells compared to positive control, considered as maximum viability (100%). c mRNA levels of CTGF were determined by qPCR (see Methods and Table 1). […]

SMILES: O=C1C2C3C=CC(C3)C2C(=O)N1OCCN1CCN(c2ccc(Cl)c(Cl)c2)CC1 (centres unmarked) [SER68]
- Ki [1]: 1.13 ± 0.16 nM
- reduction of viability of Tamoxifen-cultured MCF7 cells ([2]; SER 20 μM alone): about 40%
- further reduction of viability elicited by Tamoxifen in presence of SER ([2]; SER 20 μM): 40%
- reduction of viability of Tamoxifen-cultured MCF7 cells ([2]; SER 40 μM alone): about 40%
- further reduction of viability elicited by Tamoxifen in presence of SER ([2]; SER 40 μM): 40%
- CTGF levels after SER compared with those in Tamoxifen-responsive MCF7 cells (CTGF): significantly lower

SMILES: N#CN=C(NCCCN1CCN(C(c2ccc(F)cc2)c2ccc(F)cc2)CC1)c1ccccn1 [SER79]
- Ki [1]: 21.4 ± 1.22 nM
- further reduction of viability elicited by Tamoxifen in presence of SER ([2]; SER 5 μM): No Tamoxifen effect was observed
- reduction of viability of Tamoxifen-cultured MCF7 cells ([2]; SER 20 μM alone): about 40%
- further reduction of viability elicited by Tamoxifen in presence of SER ([2]; SER 20 μM): 40%
- CTGF levels after SER compared with those in Tamoxifen-responsive MCF7 cells (CTGF): similar
